Key:
[1] = system: P. falciparum 3D7 strain expressing the cytosolic yeast DHODH (3D7-yDHODH); experiment: Confirmation assay against transgenic parasite 3D7-yDHODH; type: cell-based, Plasmodium falciparum; conditions: for activity at 10 µM: 72 h, relative parasite growth at 10 µM compound, read-out: Growth at 10 µM (%) Pf3D7-yDHODH
Description: (§1) Synchronized ring-stage parasites at 0.3% parasitemia and 2% hematocrit were cultured in a 384-well plate at 25 µL with test compounds at a final concentration in the range of 0.0003 to 10 µM with a fixed DMSO concentration of 0.4% (v/v). Parasite growth was monitored by the diaphorase-coupled P. falciparum lactate dehydrogenase (PfLDH) assay, as previously described. After 72 h, 70 µL of the assay solution (150 mM lithium L-lactate (Wako), 0.05 mg/mL 3-acetylpyridine adenine dinucleotide (Oriental Yeast Co., Ltd., Tokyo, Japan), 0.2 mg/mL nitro blue tetrazolium (Wako), 1 unit/mL diaphorase, and 100 mM Tris-HCl pH 8.0) were mixed with the parasite culture and incubated at room temperature for 40 min, and the generated nitro blue formazan was measured at 650 nm using a SpectraMax®® Paradigm®® Multi-Mode Microplate Reader. […] The EC50 was calculated using GraphPad Prism 8.0 software from the mean of quadruplets values.
The P. falciparum 3D7 strain expressing the cytosolic yeast DHODH (3D7-yDHODH) was prepared as follows. pHHyDHODH-GFP plasmid (Kerafast, Boston, MA, USA) was transfected to the P. falciparum 3D7 strain following the established transfection method. Briefly, 50 µg of plasmid dissolved in cytomix solution (120 mM KCl, 0.15 mM CaCl2, 10 mM K2HPO4/KH2PO4 pH 7.6, 25 mM HEPES-KOH pH 7.6, 2 mM ethylene glycol-bis(β-aminoethyl ether)-N,N,N′,N′-tetraacetic acid (EGTA, Dojindo), and 5 mM magnesium chloride (Wako)) was transfected into the red blood cells by the Gene Pulser Xcell (Bio-Rad). Percoll–sorbitol synchronized parasites were mixed with red blood cells containing plasmid and maintained under 5 nM WR99210 for 2 weeks. The growth of resistant parasites against DSM265 and atovaquone, as PfDHODH and complex III inhibitors respectively, was confirmed by PfLDH/diaphorase assay. A total of 10 µM PfDHODH inhibitors were tested against wild-type 3D7 and 3D7-yDHODH following the method described above in triplicate. The significance of difference between the inhibition of the two parasite strains was evaluated by Student’s t-test (Figure S4).

[2] = target: mammalian mitochondrial complexes I–III (Bos taurus, UniProt P00157+P03887+P17694+P42026); experiment: NADH-cytochrome c reductase (complexes I–III) activity assay; type: biochemical; conditions: bovine heart mitochondria, range tested 0.0007 to 22.7 µM; read-out: IC50 Mammalian Mitochondrial CI–III
Description: (§2) Bovine heart mitochondria were prepared as previously described. The NADH-cytochrome c reductase (complexes I–III) and succinate-cytochrome c reductase (complexes II–III) activities were assayed in 384-well plates following an established protocol with small modifications. Complex I–III activity was assayed in a reaction mix containing 50 mM phosphate buffer pH 7.4, 2 mM KCN, 200 µM cytochrome c (cytochrome c from horse heart, Nacalai tesque), and 15 µg/mL mitochondria. Plates containing 1 µL serial dilutions of PfDHODH inhibitors were prepared and mixed with 38 µL of the reaction mix, as described above. The reaction was started by the addition of 5 µL of 2.6 mM NADH, and the assay was performed as described for PfDHODH, but at 550 nm and with 15 min of incubation. Complex II–III activity was assayed similarly to complex I–III activity but with 100 µM cytochrome c and 25 µg/mL mitochondria, and the reaction was started by 10 mM succinate. For both assays, DMSO and 5 µM ascochlorin were used as negative and positive controls, respectively. Assays were performed in triplicate.

[3] = system: P. falciparum 3D7; experiment: In vitro antimalarial assay (PfLDH/diaphorase); type: cell-based; conditions: Plasmodium falciparum, growth inhibition, 72 h, 0.0003 to 10 µM, read-out: EC50 Pf3D7
Description: This assay was conducted using human red blood cells (RBC) following the guidelines of the ethics committee of Nagasaki University (permission no. 19). Human RBC was obtained from the Japanese Red Cross Society. The P. falciparum 3D7 strain was cultured in 2% hematocrit type O human RBC in RPMI-1640 medium (Gibco) supplemented with 23.8 mM sodium bicarbonate (Wako), 50 mg/L hypoxanthine (Wako), 25 mg/L gentamycin (Sigma), and 0.5% (w/v) AlbuMAX®® II (Gibco) under a 5% O2, 5% CO2, and 90% N2 atmosphere at 37 °C. Parasites were synchronized with 5% (w/v) D-sorbitol (Wako).
as §1

[4] = Cytotoxicity assay, DLD-1 (Cell Counting Kit-8); type: cell-based; conditions: DLD-1 human colorectal adenocarcinoma cells
Description: Human dermal fibroblast cells (HDF, Zenbio, Inc., Durham, NC, USA) were cultured in Dulbecco’s Modified Eagle Medium/Nutrient Mixture F-12 medium (DMEM/F12, Gibco), human pancreatic carcinoma cells (PANC-1, DS Pharma Biomedical, Co., Ltd.) were cultured in DMEM (Gibco), and human colorectal adenocarcinoma cells (DLD-1, Taiho Pharmaceutical Company) were cultured in RPMI-1640 medium (FUJIFILM Wako Pure Chemicals). The culture mediums were supplemented with 10% (v/v) heat-inactivated fetal bovine serum (Gibco) and the cells were maintained at 37 °C under 5% CO2.
HDF, PANC-1, and DLD-1 were seeded at 2.5 × 10^4 cells/well on a 96-well plate and incubated at 37 °C under 5% CO2 overnight. The cells were then washed with PBS and the medium was replaced with 99 µL of fresh media. Then, 1 µL of the compounds or DMSO was added to the respective wells. As controls, wells containing 1% (v/v) DMSO in column 1 and wells containing only the culture medium in column 12 were used as the negative and positive controls, respectively. After 48 h of incubation, the cells were washed with PBS, and 99 µL of fresh media was replaced, followed by the addition of 10 µL of Cell Counting Kit-8 (Dojindo) to each well. After 3 h of incubation, the absorbance was measured at 450 nm using a SpectraMax®® Paradigm®® Multi-Mode microplate Reader. The calculation of cell viability in the test well was based on the absorbance of control wells according to the manufacturer’s protocol. The mean of quadruplet values was used to calculate the CC50 using GraphPad Prism 8.0 software.

[5] = target: mammalian mitochondrial complexes II–III (Bos taurus, UniProt P00157+P35720+Q3T189+Q95123); experiment: succinate-cytochrome c reductase (complexes II–III) activity assay; type: biochemical; conditions: bovine heart mitochondria, range tested 0.0007 to 22.7 µM; read-out: IC50 Mammalian Mitochondrial CII–III
Description: as §2

SMILES	activity at 10 µM [1] [%]	IC50 [2] [µM]	EC50 [3] [nM]	EC50 at 48 h [4] [µM]	IC50 [5] [µM]	susceptibility of Pf3D7-yDHODH parasite (in words) ([1]; relative parasite growth at 10 µM, compared with wild-type 3D7)
O=[N+]([O-])c1ccc(-c2ccc3c(c2)SN2CCCN=C32)cc1 [Compound 39]	1.48 ± 0.14	> 22.7	1140 ± 60	> 10	> 22.7	–
COC(=O)c1cccc(-c2ccc3c(c2)SN2CCCN=C32)c1 [Compound 40]	-0.09 ± 0.08	> 22.7	1720 ± 480	> 10	> 22.7	–
COc1ccccc1-c1ccc2c(c1)SN1CCCN=C21 [Compound 42]	0.04 ± 0.15	> 22.7	540 ± 220	> 10	> 22.7	–
O=[N+]([O-])c1ccccc1-c1ccc2c(c1)SN1CCCN=C21 [Compound 43]	31.1 ± 2.38	> 22.7	1110 ± 80	> 10	> 22.7	reduced susceptibility

From paper PMC8268581, “Identification of 3,4-Dihydro-2H,6H-pyrimido[1,2-c][1,3]benzothiazin-6-imine Derivatives as Novel Selective Inhibitors of Plasmodium falciparum Dihydroorotate Dehydrogenase” (International Journal of Molecular Sciences, 2021)
